For one data set, the system named is HT29. Briefly: MTT assay, antiproliferative activity against HT29. Conditions: for IC50: Homo sapiens, HT-29; for toxicity in words, HT29: MTT assay. Format: cell-based, human. As to the method: (§1) The antiproliferative activity was evaluated by MTT (3-(4,5-dimethylthiazol-2-yl)-2,5-diphenyl tetrazolium bromide) assay. Four cancer cell lines; human cervical carcinoma (HeLa), human colon carcinoma (HT29 and HCT116) and human breast carcinoma (MCF-7), along with African green monkey kidney cells (Vero cells) were seeded in 96-well plates (8000 cells/well) and cultured for 24 h, followed by being treated with the selected compounds at 100 µg/mL for 72 h. Following this, 10 μL of MTT reagent (5 mg/mL in phosphate buffer solution (PBS)) was added to each well and further incubated at 37 °C for 2 h. Then, 100 μL of DMSO (dimethyl sulfoxide) was used to dissolve the formazan dye. Finally, the absorbance of the solution was measured using a microplate reader (Bio-Rad Laboratories, Hercules, CA) at wavelengths of 550 and 655 nm. The absorbance at 655 nm was used as a reference wavelength. […] Cisplatin was used as the positive control drug.

The next data set deals with MCF-7. Briefly: MTT assay, antiproliferative activity against MCF-7. Conditions: triplicate, mean ± SD; for IC50: Homo sapiens, MCF7, 72 h. Format: cell-based, human. As for the experimental part:
as §1

Another data set deals with HeLa. Briefly: MTT assay, antiproliferative activity against HeLa. Format: cell-based, human. Conditions: for IC50: Homo sapiens, HeLa; for toxicity in words, HeLa: MTT assay. As to the method:
as §1

The next data set concerns Vero cells. Briefly: MTT assay, antiproliferative activity against Vero cells. Format: cell-based, African green monkey. Conditions: Chlorocebus sabaeus, 72 h, triplicate, mean ± SD, normal cells. As to the method:
as §1

A further data set relates to HCT116. Briefly: MTT assay, antiproliferative activity against HCT116. Format: cell-based, human. Conditions: for IC50: Homo sapiens, HCT-116, MTT, 72 h, triplicate, mean ± SD; for toxicity in words, HCT116: MTT assay. As for the experimental part: as §1
The subject of data set [1] is cancer cell lines (HCT116, HT29, MCF-7 and HeLa). Briefly: MTT assay, all four cancer cell lines together. Format: cell-based, human. As for the experimental part:
as §1

For data set [2], the system named is HCT116, HT29, MCF-7, HeLa and Vero cells. Briefly: MTT assay, all cancer cells and normal cells together. Format: cell-based. As to the method:
as §1

The mark [3] stands for this setting: MTT, 72 h, triplicate, mean ± SD.

13 compounds from article PMC10770013, “Antiproliferative polyketides from fungus Xylaria cf. Longipes SWUF08-81 in different culture media” (Natural Products and Bioprospecting, 2024) can be followed below.

Molecules are shown by their SMILES. Values after ≈ are worked out from the molar mass of the structure shown. “Also recorded” adds a separate entry of the source.

For `N.N.[Cl][Pt][Cl]` [Cisplatin, reference compound], the “Antiproliferative activity, IC50 ± SD, HT29” value in the data set on HT29 (setting [3]) was 1.59 ± 0.07 µg/mL. In addition, the “Antiproliferative activity, IC50 ± SD, MCF-7” value in the data set on MCF-7 (72 h) turned out to be 3.13 ± 0.26 µg/mL. Besides, the “Antiproliferative activity, IC50 ± SD, HeLa” value with HeLa (setting [3]) worked out at 1.93 ± 0.04 µg/mL.

In the case of `COc1cc2oc3cc(O)cc(O)c3c2c(C)c1O` [Compound 1, 1,3,8-trihydroxy-7-methoxy-9-methyldibenzofuran], the IC50 in the data set on Vero cells is 25 ± 0.63 µg/mL (≈ 96.1 µM); in the data set with HCT116, 14.4 ± 0.87 µg/mL (≈ 55.2 µM); in the data set on HT29 (setting [3]), 8.99 ± 1.96 µg/mL (≈ 34.5 µM); with MCF-7 it was 18.4 ± 0.99 µg/mL (≈ 70.7 µM); in the data set on HeLa (setting [3]), 16.7 ± 0.55 µg/mL (≈ 64.1 µM). The “antiproliferative activity in words, all cancer cells” value in data set [1] is recorded as “moderate anti-proliferation”.

`COC(=O)c1cc(OC)c(O)c2c1C[C@@H](C)OC2=O` [Compound 2, (3R)-7-methoxy-5-methoxycarbonylmellein] showed a melting point of 135 to 136 °C. For the same compound, the IC50 in the data set on Vero cells is > 100 µg/mL. The IC50 with HCT116 stood at 92.9 ± 2.7 µg/mL (≈ 349 µM). In the data set with HT29 (setting [3]), this compound yielded an IC50 of 96.4 ± 3.37 µg/mL (≈ 362 µM). The half-maximal inhibitory concentration (IC50) in the data set on MCF-7 was > 100 µg/mL. For the same compound, the IC50 in the data set with HeLa (setting [3]) is > 100 µg/mL.

As to `C[C@@H]1Cc2cccc(O)c2C(=O)O1` [Compound 3, (−)-mellein], the half-inhibitory concentration (IC50) with Vero cells, in the data set with HCT116, in the data set on HT29 (setting [3]), in the data set with MCF-7 and in the data set on HeLa (setting [3]) was > 100 µg/mL throughout.

Consider `COC(=O)c1ccc(O)c2c1C[C@@H](C)OC2=O` [Compound 4, (-)-5-methoxycarbonylmellein], for which the IC50 in the data set with Vero cells, in the data set with HCT116, in the data set with HT29 (setting [3]), with MCF-7 and in the data set with HeLa (setting [3]) was > 100 µg/mL throughout.

`C[C@@H]1Cc2c(C(=O)O)ccc(O)c2C(=O)O1` [Compound 5, (−)-5-carboxymellein]: the IC50 with Vero cells is > 100 µg/mL; in the data set on HCT116 it was 54.9 ± 3.35 µg/mL (≈ 247 µM); in the data set on HT29 (setting [3]), 72.6 ± 2 µg/mL (≈ 327 µM); with MCF-7 it was > 100 µg/mL; in the data set on HeLa (setting [3]), 57.8 ± 1.26 µg/mL (≈ 260 µM). Further, the “toxicity in words, HCT116” value in the data set on HCT116 is listed as “slightly toxic”. For the same compound, the “toxicity in words, HT29” value in the data set with HT29 is reported as “slightly toxic”. Further, the “toxicity in words, HeLa” value in the data set on HeLa is “slightly toxic”.

`COc1cc(O)cc2c1C(=O)O[C@H](C[C@H]1CCC[C@@H](C)O1)C2` [Compound 15, (3S,2′R,6′R)-asperentin-8-O-methylether]: the IC50 with Vero cells is > 100 µg/mL; in the data set on HCT116, 45.1 ± 3.65 µg/mL (≈ 147 µM); with HT29 (setting [3]) it was 67.6 ± 6.99 µg/mL (≈ 221 µM); in the data set with MCF-7, > 100 µg/mL; in the data set on HeLa (setting [3]) it was 92.9 ± 2.7 µg/mL (≈ 303 µM). In addition, the “toxicity in words, HCT116” value in the data set with HCT116 is “slightly toxic”. The “toxicity in words, HT29” value with HT29 was “slightly toxic”. Moreover, the “toxicity in words, HeLa” value in the data set on HeLa was “slightly toxic”.

Consider `C[C@H]1CCC[C@H](Cc2cc(O)cc(O)c2)O1` [Compound 17, (2′R,6′S)-5-((-6-methyltetrahydro-2H-pyran-2-yl)methyl)benzene-1,3-diol], for which the IC50 is > 100 µg/mL in the data set with Vero cells; 17.5 ± 1.29 µg/mL (≈ 78.7 µM) in the data set with HCT116; 19.5 ± 0.77 µg/mL (≈ 87.7 µM) in the data set on HT29 (setting [3]); 50.2 ± 3.85 µg/mL (≈ 226 µM) in the data set on MCF-7; 13.5 ± 1.15 µg/mL (≈ 60.9 µM) in the data set on HeLa (setting [3]). Also, the “antiproliferative activity in words, all cancer cells” value in data set [1] is “moderate anti-proliferation”.

Turning to `C[C@H]1CCC[C@H](C[C@H]2Cc3cc(O)cc(O)c3C(=O)O2)O1` [Compound 18, asperentin], the IC50 in the data set on Vero cells is 8.77 ± 0.91 µg/mL (≈ 30 µM); in the data set on HCT116, 2.42 ± 0.2 µg/mL (≈ 8.28 µM); with HT29 (setting [3]), 4.51 ± 0.13 µg/mL (≈ 15.4 µM); with MCF-7, 10.1 ± 0.52 µg/mL (≈ 34.5 µM); in the data set on HeLa (setting [3]), 2.09 ± 0.16 µg/mL (≈ 7.15 µM); in data set [2] (range over HCT116, HT29, MCF-7, HeLa and Vero cells, read-out: IC50 range against all cancer cells and normal cells), 2.09 to 10.1 µg/mL (≈ 7.15 to 34.5 µM). Moreover, in data set [2] (MTT assay), the “antiproliferative activity in words, all cancer cells and normal cells” value is recorded as “strong broad spectrum”. Besides, the “antiproliferative activity in words, all cancer cells” value in data set [1] is listed as “significantly toxic”.

Regarding `COc1cc(O)cc2c1C(=O)O[C@@H](C[C@H]1CCC[C@H](C)O1)C2` [Compound 19, asperentin-8-O-methylether], the IC50 with Vero cells is > 100 µg/mL; with HCT116, 66.5 ± 7.68 µg/mL (≈ 217 µM); with HT29 (setting [3]) it was > 100 µg/mL; with MCF-7 it was > 100 µg/mL; in the data set with HeLa (setting [3]), > 100 µg/mL.

For the compound `COc1cc(O)c2c(c1)C[C@H](C[C@H]1CCC[C@H](C)O1)OC2=O` [Compound 20, asperentin-6-O-methylether], the IC50 was > 100 µg/mL in the data set on Vero cells; 8.69 ± 0.69 µg/mL (≈ 28.4 µM) with HCT116; 33.3 ± 4.42 µg/mL (≈ 109 µM) in the data set with HT29 (setting [3]); 11.7 ± 0.82 µg/mL (≈ 38.2 µM) with MCF-7; 4.98 ± 0.4 µg/mL (≈ 16.3 µM) in the data set with HeLa (setting [3]). The “antiproliferative activity in words, all cancer cells” value in data set [1] was “significantly toxic; also recorded: moderate anti-proliferation”.

`C[C@@H]1O[C@@H](C[C@H]2Cc3cc(O)cc(O)c3C(=O)O2)CC[C@@H]1O` [Compound 21, 5′-hydroxyasperentin]: the IC50 with Vero cells, with HCT116, with HT29 (setting [3]), with MCF-7 and in the data set with HeLa (setting [3]) was > 100 µg/mL each time.

On to `C[C@H]1C[C@@H](O)C[C@H](C[C@H]2Cc3cc(O)cc(O)c3C(=O)O2)O1` [Compound 22, 4′-hydroxyasperentin], for which the IC50 with Vero cells, in the data set with HCT116, in the data set on HT29 (setting [3]), in the data set with MCF-7 and in the data set with HeLa (setting [3]) was > 100 µg/mL each time.
